Here are results for 29 molecules from patent US20230250106A1, “COMPOUNDS AND COMPOSITIONS FOR TREATING CONDITIONS ASSOCIATED WITH STING ACTIVITY” (IFM Due, Inc., priority 2020, published 2023).

For this test, the system named is STING pathway. In words: STING reporter assay: luciferase reporter activity in THP1-Dual KO-IFNAR2 cells activated with 2'3'cGAMP. The format is cell-based. Particulars: Homo sapiens, 2'3'cGAMP 15 μM, 24 h, read-out: hSTING EC50. The procedure: STING pathway activation by the compounds described herein was measured using THP1-Dual™ cells (KO-IFNAR2).
THP1-Dual™ KO-IFNAR2 Cells (obtained from invivogen) were maintained in RPMI, 10% FCS, 5 ml P/S, 2 mM L-glut, 10 mM Hepes, and 1 mM sodium pyruvate. Compounds were spotted in empty 384 well tissue culture plates (Greiner 781182) by Echo for a final concentration of 0.0017-100 μM. Cells were plated into the TC plates at 40 μL per well, 2×10E6 cells/mL. For activation with STING ligand, 2′3′cGAMP (MW 718.38, obtained from Invivogen), was prepared in Optimem media.
The following solutions were prepared for each 1×384 plate: • Solution A: 2 mL Optimem with one of the following stimuli: • 60 μL of 10 mM 2′3′cGAMP→150 μM stock • Solution B: 2 mL Optimem with 60 μL Lipofectamine 2000→Incubate 5 min at RT
2 mL of solution A and 2 ml Solution B was mixed and incubated for 20 min at room temperature (RT). 20 μL of transfection solution (A+B) was added on top of the plated cells, with a final 2′3′cGAMP concentration of 15 μM. The plates were then centrifuged immediately at 340 g for 1 minute, after which they were incubated at 37° C., 5% CO2,>98% humidity for 24 h. Luciferase reporter activity was then measured. EC50 values were calculated by using standard methods known in the art.
Luciferase reporter assay: 10 μL of supernatant from the assay was transferred to white 384-plate with flat bottom and squared wells. One pouch of QUANTI-Luc™ Plus was dissolved in 25 mL of water. 100 μL of QLC Stabilizer per 25 mL of QUANTI-Luc™ Plus solution was added. 50 μL of QUANTI-Luc™ Plus/QLC solution per well was then added. Luminescence was measured on a Platereader (e.g., Spectramax I3X (Molecular Devices GF3637001)).
Luciferase reporter activity was then measured. EC50 values were calculated by using standard methods known in the art.
In general terms: In a reporter assay the amount or activity of a reporter protein is the signal.
For the molecule `O=C(Nc1c[nH]c2cc(F)c(F)cc12)c1ccc(OCC(F)(F)F)c(F)c1` [Compound 134, N-(5,6-difluoro-1H-indol-3-yl)-3-fluoro-4-(2,2,2-trifluoroethoxy)benzamide], the EC50 – broadly, the concentration at which the effect is half-maximal – fell in the range of 200 to 1000 nM.
The figure for `O=C(Nc1c[nH]c2cc(F)c(F)cc12)c1ccc(OC(F)(F)F)cc1` [Compound 135, N-(5,6-difluoro-1H-indol-3-yl)-4-(trifluoromethoxy)benzamide] is 200 to 1000 nM.
The figure for `O=C(Nc1c[nH]c2cc(F)c(F)cc12)c1ccc(OCc2ccccc2)cc1` [Compound 136, 4-(benzyloxy)-N-(5,6-difluoro-1H-indol-3-yl)benzamide] is 200 to 1000 nM.
To `O=C(Nc1c[nH]c2cc(F)c(F)cc12)c1cnc(N2CC(F)(F)C2)c(Cl)c1` [Compound 137, 5-chloro-N-(5,6-difluoro-1H-indol-3-yl)-6-(3,3-difluoroazetidin-1-yl)nicotinamide] belongs 200 to 1000 nM; to `O=C(Nc1c[nH]c2cc(F)c(F)cc12)c1ccc(OCCCC(F)(F)F)nc1` [Compound 138, N-(5,6-difluoro-1H-indol-3-yl)-6-(4,4,4-trifluorobutoxy)nicotinamide], 200 to 1000 nM.
As to `O=C(Nc1c[nH]c2cc(F)c(F)cc12)c1ccc(OCCCC(F)(F)F)cn1` [Compound 139, N-(5,6-difluoro-1H-indol-3-yl)-5-(4,4,4-trifluorobutoxy)picolinamide], the EC50 was 200 to 1000 nM.
The figure for `O=C(Nc1c[nH]c2cc(F)c(F)cc12)c1cnc(OCCC(F)(F)F)c(F)c1` [Compound 140, N-(5,6-difluoro-1H-indol-3-yl)-5-fluoro-6-(3,3,3-trifluoropropoxy)nicotinamide] is 200 to 1000 nM; for `O=C(Nc1c[nH]c2cc(F)c(F)cc12)c1ccc(OCCC(F)(F)F)cc1` [Compound 141, N-(5,6-difluoro-1H-indol-3-yl)-4-(3,3,3-trifluoropropoxy)benzamide] it is 200 to 1000 nM.
The figure for `O=C(Nc1c[nH]c2cc(F)c(F)cc12)c1ccc(OCCCC(F)(F)F)c(F)c1` [Compound 142, N-(5,6-difluoro-1H-indol-3-yl)-3-fluoro-4-(4,4,4-trifluorobutoxy)benzamide] is 200 to 1000 nM; for `COc1ccc2[nH]cc(NC(=O)c3ccc(OCCCC(F)(F)F)c(F)c3)c2n1` [Compound 143, 3-fluoro-N-(5-methoxy-1H-pyrrolo[3,2-b]pyridin-3-yl)-4-(4,4,4-trifluorobutoxy)benzamide] it is 1000 to 5000 nM.
The figure for `O=C(Nc1c[nH]c2ncc(F)cc12)c1ccc(OCCCC(F)(F)F)c(F)c1` [Compound 144, 3-fluoro-N-(5-fluoro-1H-pyrrolo[2,3-b]pyridin-3-yl)-4-(4,4,4-trifluorobutoxy)benzamide] is 1000 to 5000 nM.
For the molecule `N#Cc1ccc2[nH]cc(NC(=O)c3ccc(OCCCC(F)(F)F)c(F)c3)c2c1` [Compound 145, N-(5-cyano-1H-indol-3-yl)-3-fluoro-4-(4,4,4-trifluorobutoxy)benzamide], the EC50 fell in the range of 200 to 1000 nM.
The figure for `O=C(Nc1c[nH]c2ccc(F)cc12)c1ccc(OCCCC(F)(F)F)c(F)c1` [Compound 146, 3-fluoro-N-(5-fluoro-1H-indol-3-yl)-4-(4,4,4-trifluorobutoxy)benzamide] is 40 to 200 nM; for `CCOc1ccc(C(=O)Nc2c[nH]c3cc(F)c(F)cc23)cc1` [Compound 147, N-(5,6-difluoro-1H-indol-3-yl)-4-ethoxybenzamide] it is 200 to 1000 nM.
The figure for `O=C(Nc1c[nH]c2cc(F)c(F)cc12)c1cnc(OCCCC(F)(F)F)cn1` [Compound 148, N-(5,6-difluoro-1H-indol-3-yl)-5-(4,4,4-trifluorobutoxy)pyrazine-2-carboxamide] is 200 to 1000 nM; for `O=C(Nc1c[nH]c2cc(F)c(F)cc12)c1ccc(OC2CC(F)(F)C2)c(F)c1` [Compound 149, N-(5,6-difluoro-1H-indol-3-yl)-4-(3,3-difluorocyclobutoxy)-3-fluorobenzamide] it is 200 to 1000 nM; for `N#Cc1cc(C(=O)Nc2c[nH]c3cc(F)c(F)cc23)ccc1OCCCC(F)(F)F` [Compound 150, 3-cyano-N-(5,6-difluoro-1H-indol-3-yl)-4-(4,4,4-trifluorobutoxy)benzamide] it is 40 to 200 nM.
For `O=C(Nc1c[nH]c2cc(F)c(F)cc12)c1ccc(OCCCC(F)(F)F)c(Cl)c1` [Compound 151, 3-chloro-N-(5,6-difluoro-1H-indol-3-yl)-4-(4,4,4-trifluorobutoxy)benzamide], the EC50 lay within 200 to 1000 nM.
The figure for `O=C(Nc1c[nH]c2cc(F)c(F)cc12)c1ccc(OCC(F)(F)F)cc1` [Compound 152, N-(5,6-difluoro-1H-indol-3-yl)-4-(2,2,2-trifluoroethoxy)benzamide] is 200 to 1000 nM; for `O=C(Nc1c[nH]c2ccc(Cl)cc12)c1ccc(OCCCC(F)(F)F)c(F)c1` [Compound 153, N-(5-chloro-1H-indol-3-yl)-3-fluoro-4-(4,4,4-trifluorobutoxy)benzamide] it is 200 to 1000 nM.
To `O=C(Nc1c[nH]c2cc(F)c(F)cc12)c1cnc(N2CCC(F)(F)CC2)c(F)c1` [Compound 154, N-(5,6-difluoro-1H-indol-3-yl)-6-(4,4-difluoropiperidin-1-yl)-5-fluoronicotinamide] belongs 200 to 1000 nM; to `Cc1cc(C(=O)Nc2c[nH]c3cc(F)c(F)cc23)ccc1OCCCC(F)(F)F` [Compound 155, N-(5,6-difluoro-1H-indol-3-yl)-3-methyl-4-(4,4,4-trifluorobutoxy)benzamide], 40 to 200 nM; to `O=C(Nc1c[nH]c2cc(F)c(F)cc12)c1cnc(N2CCC(F)(F)CC2)c(Cl)c1` [Compound 156, 5-chloro-N-(5,6-difluoro-1H-indol-3-yl)-6-(4,4-difluoropiperidin-1-yl)nicotinamide], 200 to 1000 nM.
To `COCCOc1ccc(C(=O)Nc2c[nH]c3cc(F)c(F)cc23)cn1` [Compound 157, N-(5,6-difluoro-1H-indol-3-yl)-6-(2-methoxyethoxy)nicotinamide] belongs 200 to 1000 nM; to `O=C(Nc1c[nH]c2cc(F)c(F)cc12)c1ccc(C2CCC(F)(F)CC2)cc1` [Compound 158, N-(5,6-difluoro-1H-indol-3-yl)-4-(4,4-difluorocyclohexyl)benzamide], 40 to 200 nM.
Take `O=C(Nc1c[nH]c2cc(F)c(F)cc12)c1ccc(N2CCC(F)(F)CC2)nc1` [Compound 159, N-(5,6-difluoro-1H-indol-3-yl)-6-(4,4-difluoropiperidin-1-yl)nicotinamide]: the concentration giving a half-maximal response (EC50) is 40 to 200 nM.
To `O=C(Nc1c[nH]c2cc(F)c(F)cc12)c1ccc(OCCC(F)(F)F)c(F)c1` [Compound 160, N-(5,6-difluoro-1H-indol-3-yl)-3-fluoro-4-(3,3,3-trifluoropropoxy)benzamide] belongs 40 to 200 nM; to `COCc1ccc(-n2cc(-c3ccc4[nH]cc(NC(=O)c5ccc(OCCCC(F)(F)F)cc5)c4c3)cn2)cc1` [Compound 162, N-(5-(1-(4-(methoxymethyl)phenyl)-1H-pyrazol-4-yl)-1H-indol-3-yl)-4-(4,4,4-trifluorobutoxy)benzamide], 40 to 200 nM.
As to `COCCC1CCN(c2ncc(C(=O)Nc3c[nH]c4cc(F)c(F)cc34)cc2Cl)CC1` [Compound 163, 5-chloro-N-(5,6-difluoro-1H-indol-3-yl)-6-(4-(2-methoxyethyl)piperidin-1-yl)nicotinamide], the EC50 lay within 40 to 200 nM.
